The values that follow come from patent publication US20130011845A1, “MICRORNA REGULATING THE INSULIN SIGNALING PATHWAY, AND METHOD FOR SCREENING MATERIAL FOR CONTROLLING THE ACTION OF A TARGET THEREOF” (SNU R & DB Foundation, priority 2009, published 2013).

In one data set the test system is KLHL20 3′UTR. As to the kind of experiment: dual-luciferase 3′UTR reporter assay, pAC-KLHL20. The class given is cell-based. Conditions: luciferase reporter with KLHL20 3′UTR, human Hela cell lines; average of at least two independent experiments. On the procedure:
(§1) In order to determine whether the target genes identified in Example 7 are in actuality targets of miR-8 and miR-200 family miRNAs, the inventors performed cloning. In other words, […] containing the miRNA target sites. Specifically, in order to obtain cDNAs of respective target genes, from drosophila S2 cell lines or human Hela cell lines, total RNA was extracted by using RNeasy mini kit (QIAGEN, US). 1 μg of total RNA and 1 μl of Oligo-dT (Invitrogen, US) were charged with up to 50 μl of distilled water, and placed into SuperScript First-Strand Synthesis System (Invitrogen, US), followed by RT-PCR reaction. Through the reaction at 65° C. for 6 min, at 4° C. for 5 min, at 42° C. for 60 min, at 95° C. for 5 min, and at 4° C. for 5 min, cDNA was synthesized. By using the cDNA (3˜5 μg) as template, and using a primer pair on respective genes noted in Table 3 and PCR Mastermix (Promega, US), PCR was performed on 3′UTR of ush, Lap1, CG8445, dbo, Lar, Ced-12, CG12333, cbt, FOG2, SEPT7, RIN2, SHC1, HOXB5, LF11, TCF7L1, ERBB21P, ELMO2, BAP1, WDR37, KLHL20, PTPRD, RASSF2 and VAC14 from among the target genes selected in Example 7. Herein, PCRP on atro as a drosophila control gene was also performed. After the reaction was completed, the PCR product on each gene's 3′UTR region was cleaved by each of the following restriction enzymes:
(§2) Then, it was cloned into pAC5.1 luciferase vector (a kind gift of Elisa Izaurralde) cleaved by the same restriction enzymes so as to produce a reporter plasmid having a miR-8 or miR-200 family target sequence in luciferase gene's 3′UTR sequence.
(§3) Reporter plasmids and renilla luciferase expression vectors (Promega, US), as noted in Table 4, and miRNAs of miR-200 family of miR-141, miR-200a (hsa-miR-200a, SEQ ID: 87: 5′-[…]-3′), miR-200b, miR-200c (has-miR-200c, SEQ ID: 88: 5′-[…]-3′) and miR-429, and miR-8 (dme-miR-8, SEQ ID: 89: 5′-[…]-3′) were bought from Samchonri and cotransfected into drosophila S2 cell lines or human Hela cell lines. Then, the activities of luciferase were measured through dual-luciferase assay (Promega, US) by a luminometer (Biorad). Then, 7 gene pairs that respond both to miR-8 and to mir-200 family miRNAs in Drosophila and human cells, respectively were identified (see FIG. 15).

Another data set has as its system TCF7L1 3′UTR. As to the kind of experiment: dual-luciferase 3′UTR reporter assay, pAC-TCF7L1. In kind it is cell-based. As to conditions: luciferase reporter with TCF7L1 3′UTR, human Hela cell lines; average of at least two independent experiments. How it is done:
as §1, §2, §3
(In a reporter assay the amount or activity of a reporter protein is the signal.)

The next data set has as its system RIN2 3′UTR. Description: dual-luciferase 3′UTR reporter assay, pAC-RIN2. In kind it is cell-based. Conditions: luciferase reporter with RIN2 3′UTR, human Hela cell lines; average of at least two independent experiments. How it is done: as §1, §2, §3
The next data set deals with FOXO. As to the kind of experiment: FOXO luciferase reporter (pFK1tk-luc) assay in Hep3B cells. In kind it is cell-based, human. From the text:
The inventors analyzed the effect of miR-200 miRNAs on the downstream transducers of Akt (see FIGS. 44 to 47). Because Akt represses FOXO activity, the inventors used a luciferase reporter plasmid (pFK1tk-luc) (Biggs, W H et al., 1999, Proc Natl Acad Sci USA 96, 7421-7426) containing eight FOXO-binding sites to determine the level of FOXO activity in cultured cells. Specifically, Hep3B cells were transfected with synthesized siGFP, miR-141, miR-200a, miR-200b, miR-200c, miR-429 or siFOG2 together with pFK1tk-luc vector, and then luciferase activity was measured in the same manner as described Example 8-2. Also, Hep3B cells were transfected with luciferase, or oligonucleotides having complementary sequence to miR-141, miR-200a, miR-200b, miR-200c or miR-429 together with pFK1tk-luc vector. Then, the luciferase activity was measured in the same manner as described above. Further, Hep3B cell lines were transfected with pCK-flag (empty vector) and pCK-FOG2 produced in Example 16-1, and the luciferase activity was measured in the same manner as described above. […] Further, treating the cells with miR-200 inhibitors elevated FOXO activity (see FIG. 46).

In the next data set the test system is Hep3B cells. Description: MTT cellular viability assay. In kind it is cell-based, human. As to conditions: Hep3B cells transfected with 30 nM. On the procedure: Because stimulation of PI3K and Akt is known to facilitate cell proliferation and antagonize apoptosis (Pollak, 2008), the inventors measured cellular viability with the MTT (3-(4,5-dimethylthiazol-2-yl)-2,5-diphenyltetrazolium bromide) assay in Hep3B cells. Specifically, Hep3B cells were plated in a 96-well plate, and transfected with 30 nM of synthesized siGFP, miR-141, miR-200a, miR-200b, miR-200c, miR-429 or siFOG2. Then, to the plate, 50 μl of MTT solution (2 mg/ml) (Promega, US) was added per each well, followed by culturing at 37 °C for 1 hour. Then, each well was added with 150 μl of DMSO, and measured by a microplate reader (Bio-rad, US) at a wavelength of 590 nm. Also, Hep3B cells were transfected with 200 nM of luciferase, or 200 nM of oligonucleotides having complementary sequences to miR-141, miR-200a, miR-200b, miR-200c or miR-429, and then were subjected to MTT assay in the same manner as described above.

For the substance “5′-UAACACUGUCUGGUAACGAUGU-3′ (listed as RNA, chemistry not given here) [miR-200a]”, the “Represion fold, KLHL20” value in the data set with KLHL20 3′UTR worked out at 1.02 fold. Besides, the “Represion fold, TCF7L1” value in the data set with TCF7L1 3′UTR is on record as 1.17 fold. In the data set on RIN2 3′UTR, the “Represion fold, RIN2” value is given as 2.49 fold. Moreover, the “FOXO activity (activity of luciferase, pFK1tk-luc)” value (from here on “FOXO activity”) in the data set on FOXO was “significantly repressed”. In addition, in the data set with Hep3B cells, the “cell viability (MTT)” value is reported as “increased cell viability”.

As for “5′-UAAUACUGCCUGGUAAUGAUGA-3′ (listed as RNA, chemistry not given here) [miR-200b]”, in the data set with KLHL20 3′UTR, the “Represion fold, KLHL20” value amounted to 0.85 fold. Further, the “Represion fold, TCF7L1” value in the data set on TCF7L1 3′UTR is 0.81 fold. In addition, in the data set with RIN2 3′UTR, the “Represion fold, RIN2” value is 1.91 fold. In addition, the “FOXO activity” value in the data set on FOXO is reported as “significantly repressed”. Further, the “cell viability (MTT)” value in the data set with Hep3B cells is on record as “increased cell viability”.

As to “5′-UAAUACUGUCUGGUAAAACCGU-3′ (listed as RNA, chemistry not given here) [miR-429]”, the “Represion fold, KLHL20” value with KLHL20 3′UTR is reported as 0.55 fold. The “Represion fold, TCF7L1” value with TCF7L1 3′UTR is on record as 0.71 fold. In addition, the “Represion fold, RIN2” value in the data set on RIN2 3′UTR turned out to be 1.41 fold. In addition, the “FOXO activity” value in the data set with FOXO is given as “significantly repressed”. In addition, in the data set with Hep3B cells, the “cell viability (MTT)” value is on record as “increased cell viability”.

With “5′-UAACACUGUCUGGUAAAGAUGG-3′ (listed as RNA, chemistry not given here) [miR-141]”, the “Represion fold, KLHL20” value in the data set on KLHL20 3′UTR is 0.84 fold. Besides, the “Represion fold, TCF7L1” value in the data set on TCF7L1 3′UTR was found to be 0.91 fold. Moreover, the “Represion fold, RIN2” value in the data set with RIN2 3′UTR worked out at 1.10 fold. In the data set with FOXO, the “FOXO activity” value is “significantly repressed”. Further, in the data set on Hep3B cells, the “cell viability (MTT)” value was “increased cell viability”.
